# Measurements published in US12065424B1, “6′(4-methoxyphenyl)-2′-alkoxy-3,4′-bipyridine-3′-carbonitrile as antimicrobial compounds” (KING FAISAL UNIVERSITY, priority 2023, dated 2024).
# Legend:
# Assay type in all cases: cell-based
# Bacillus Cereus = experiment: Agar plate disc-diffusion, antibacterial inhibition zone; conditions: nutrient agar, 37° C., 48 h, DMSO zone subtracted
# Description: (§1) The agar plate disc-diffusion method was applied. Sterilized filter papers (6 mm in diameter) were wetted with 10 μL of a solution of 6′-(4-methoxyphenyl)-2′-ethoxy-3,4′-bipyridine-3′-carbonitrile (4) or 6′-(4-methoxyphenyl)-2′-methoxy-3,4′-bipyridine-3′-carbonitrile (5) to be tested, containing […] in DMSO, and the discs were allowed to air dry. The discs were then placed onto the surface of agar plates (nutrient agar for bacteria and Sabouraud's dextrose agar for fungi) seeded with the test organism. Each plate contained 15 mL of the agar medium, previously seeded with 0.2 mL of the broth culture of each organism pregrown for 18 hours. The plates were incubated at 37° C. for 48 h, and 72 h for fungi. The inhibition zones were measured in mm. Discs impregnated with DMSO were used as a control, and its inhibition zone was subtracted from the tested compound actual inhibition zone.
# (§2) The results of the antimicrobial testing can be observed in Tables 1 and 2, below, using ciprofloxacin as a reference.
# Escherichia coli = experiment: as above; conditions: nutrient agar, 37° C., 48 h, DMSO zone subtracted
# Description: as §1, §2
# Pseudomonas aeruginosa = experiment: as above; conditions: nutrient agar, 37° C., 48 h, DMSO zone subtracted
# Description: as §1, §2
# Staphylococcus aureus = experiment: as above; conditions: nutrient agar, 37° C., 48 h, DMSO zone subtracted
# Description: as §1, §2
# Aspergillus flavus = experiment: Agar plate disc-diffusion, antifungal inhibition zone; conditions: Sabouraud's dextrose agar, 37° C., 72 h, DMSO zone subtracted
# Description: as §1, §2
# [1] = test system: Chrysosporium keratinophilum; experiment: as above; conditions: Sabouraud's dextrose agar, 37° C., 72 h, DMSO zone subtracted
# Description: as §1, §2
# different microbes = experiment: Antimicrobial activity, overall statement on Tables 1 and 2; conditions: summary of Tables 1 and 2, bacteria and fungi
# Description: as §1
# Their antibacterial activity was screened against gram positive bacteria namely Bacillus cereus and Staphylococcus aureus and gram-negative bacterial strains namely Pseudomonas aeruginosa and Escherichia coli, while their antifungal activity was screened against Aspergillus flavus and Chrysosporium keratinophilum.
# [2] = A = concentration of comp. = 10,000 μL
# [3] = B = concentration of comp. = 30.000 μL
# [4] = C = concentration of comp. = 50,000 μL
SMILES,inhibition zone (Bacillus Cereus; [2]),inhibition zone (Bacillus Cereus; [3]),inhibition zone (Bacillus Cereus; [4]),inhibition zone (Escherichia coli; [2]),inhibition zone (Escherichia coli; [3]),inhibition zone (Escherichia coli; [4]),inhibition zone (Pseudomonas aeruginosa; [2]),inhibition zone (Pseudomonas aeruginosa; [3]),inhibition zone (Pseudomonas aeruginosa; [4]),inhibition zone (Staphylococcus aureus; [2]),inhibition zone (Staphylococcus aureus; [3]),inhibition zone (Staphylococcus aureus; [4]),inhibition zone (Aspergillus flavus; [2]),inhibition zone (Aspergillus flavus; [3]),inhibition zone (Aspergillus flavus; [4]),"inhibition zone [1, 2]","inhibition zone [1, 3]","inhibition zone [1, 4]",antimicrobial activities (in words) (different microbes)
"O=C(O)c1cn(C2CC2)c2cc(N3CCNCC3)c(F)cc2c1=O [Cip., ciprofloxacin, reference compound]",29 mm,30 mm,42 mm,30 mm,39 mm,60 mm,29 mm,30 mm,53 mm,43 mm,44 mm,53 mm,29 mm,30 mm,42 mm,29 mm,30 mm,53 mm,–
"CCOc1nc(-c2ccc(OC)cc2)cc(-c2cccnc2)c1C#N [Compound 4, 6′-(4-methoxyphenyl)-2′-ethoxy-3,4′-bipyridine-3′-carbonitrile]",19 mm,25 mm,32 mm,26 mm,36 mm,49 mm,25 mm,28 mm,41 mm,17 mm,21 mm,31 mm,23 mm,27 mm,38 mm,25 mm,28 mm,46 mm,high antimicrobial activities
"COc1ccc(-c2cc(-c3cccnc3)c(C#N)c(OC)n2)cc1 [Compound 5, 6′-(4-methoxyphenyl)-2′-methoxy-3,4′-bipyridine-3′-carbonitrile]",23 mm,25 mm,37 mm,27 mm,37 mm,50 mm,23 mm,31 mm,39 mm,19 mm,27 mm,32 mm,24 mm,26 mm,39 mm,27 mm,28 mm,49 mm,high antimicrobial activities
